# In PubChem BioAssay (NCI):
#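 The compound was tested at five concentrations on cells cultured in 96-well plates, with a 48-hour exposure period. GI50 = concentration required for 50% inhibition of growth. At the TGI there is no net growth.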
# What was measured:
# Experiment in all cases: NCI tumour cell line growth inhibition, 48 h
# 786-0 renal = test system: 786-0 renal
# UACC-62 melanoma = test system: UACC-62 melanoma
# U251 CNS = test system: U251 CNS
# MALME-3M melanoma = test system: MALME-3M melanoma
# M14 melanoma = test system: M14 melanoma
# CCRF-CEM leukemia = test system: CCRF-CEM leukemia
# SK-OV-3 ovarian = test system: SK-OV-3 ovarian
# OVCAR-4 ovarian = test system: OVCAR-4 ovarian
# MDA-MB-435 = test system: MDA-MB-435
# MDA-MB-231 breast = test system: MDA-MB-231 breast
# SN12C renal = test system: SN12C renal
# SF-539 CNS = test system: SF-539 CNS
# SNB-75 CNS = test system: SNB-75 CNS
# SNB-19 CNS = test system: SNB-19 CNS
# SF-295 CNS = test system: SF-295 CNS
# ACHN renal = test system: ACHN renal
# HCC-2998 colon = test system: HCC-2998 colon
# COLO 205 colon = test system: COLO 205 colon
# A498 renal = test system: A498 renal
# SW-620 colon = test system: SW-620 colon
# SF-268 CNS = test system: SF-268 CNS
# OVCAR-5 ovarian = test system: OVCAR-5 ovarian
# LOX IMVI melanoma = test system: LOX IMVI melanoma
# HT29 colon = test system: HT29 colon
# NCI-H226 lung = test system: NCI-H226 lung
# SR leukemia = test system: SR leukemia
# DU-145 prostate = test system: DU-145 prostate
# TK-10 renal = test system: TK-10 renal
# IGROV1 ovarian = test system: IGROV1 ovarian
# PC-3 prostate = test system: PC-3 prostate
# A549 NSCLC = test system: A549 NSCLC
# SK-MEL-28 melanoma = test system: SK-MEL-28 melanoma
# NCI-H23 lung = test system: NCI-H23 lung
# NCI-H460 lung = test system: NCI-H460 lung
# OVCAR-3 ovarian = test system: OVCAR-3 ovarian
# RPMI-8226 leukemia = test system: RPMI-8226 leukemia
# NCI-H522 lung = test system: NCI-H522 lung
# K-562 leukemia = test system: K-562 leukemia
# NCI/ADR-RES ovarian = test system: NCI/ADR-RES ovarian
# RXF 393 renal = test system: RXF 393 renal
# SK-MEL-2 melanoma = test system: SK-MEL-2 melanoma
# SK-MEL-5 melanoma = test system: SK-MEL-5 melanoma
# EKVX NSCLC = test system: EKVX NSCLC
# OVCAR-8 ovarian = test system: OVCAR-8 ovarian
# UO-31 renal = test system: UO-31 renal
# UACC-257 melanoma = test system: UACC-257 melanoma
# HCT-15 colon = test system: HCT-15 colon
# T-47D breast = test system: T-47D breast
# HS 578T breast = test system: HS 578T breast
# CAKI-1 renal = test system: CAKI-1 renal
# KM12 colon = test system: KM12 colon
# HOP-62 NSCLC = test system: HOP-62 NSCLC
# MOLT-4 leukemia = test system: MOLT-4 leukemia
# HCT-116 colon = test system: HCT-116 colon
# HOP-92 NSCLC = test system: HOP-92 NSCLC
# MCF7 breast = test system: MCF7 breast
# BT-549 breast = test system: BT-549 breast
# HL-60(TB) leukemia = test system: HL-60(TB) leukemia
structure (smiles),measurement,setting,value
COc1ccc2c(c1)NC1=C(C(=O)OC1)C2c1cc(OC)c(OC)c(OC)c1 (configuration not stated),GI50,786-0 renal,< 10 nM
same,TGI,786-0 renal,> 100000 nM
same,GI50,UACC-62 melanoma,< 10 nM
same,TGI,UACC-62 melanoma,> 100000 nM
same,GI50,U251 CNS,< 10 nM
same,TGI,U251 CNS,> 100000 nM
same,GI50,MALME-3M melanoma,26000 nM
same,TGI,MALME-3M melanoma,> 100000 nM
same,GI50,M14 melanoma,< 10 nM
same,TGI,M14 melanoma,> 100000 nM
same,GI50,CCRF-CEM leukemia,< 10 nM
same,TGI,CCRF-CEM leukemia,> 100000 nM
same,GI50,SK-OV-3 ovarian,< 10 nM
same,GI50,OVCAR-4 ovarian,< 37.5 nM
same,TGI,OVCAR-4 ovarian,> 100000 nM
same,GI50,MDA-MB-435,< 10 nM
same,TGI,MDA-MB-435,< 16.4 nM
same,GI50,MDA-MB-231 breast,< 10 nM
same,TGI,MDA-MB-231 breast,< 10 nM
same,GI50,SN12C renal,< 10 nM
same,TGI,SN12C renal,> 100000 nM
same,GI50,SF-539 CNS,< 10 nM
same,TGI,SF-539 CNS,18600 nM
same,GI50,SNB-75 CNS,< 10 nM
same,TGI,SNB-75 CNS,40000 nM
same,GI50,SNB-19 CNS,< 10 nM
same,TGI,SNB-19 CNS,> 100000 nM
same,GI50,SF-295 CNS,< 10 nM
same,TGI,SF-295 CNS,> 54500 nM
same,GI50,ACHN renal,< 10 nM
same,TGI,ACHN renal,> 100000 nM
same,GI50,HCC-2998 colon,< 10 nM
same,GI50,COLO 205 colon,< 10 nM
same,TGI,COLO 205 colon,< 10 nM
same,GI50,A498 renal,< 10 nM
same,TGI,A498 renal,< 10 nM
same,GI50,SW-620 colon,< 10 nM
same,TGI,SW-620 colon,> 100000 nM
same,GI50,SF-268 CNS,< 10 nM
same,TGI,SF-268 CNS,> 100000 nM
same,GI50,OVCAR-5 ovarian,< 10 nM
same,TGI,OVCAR-5 ovarian,> 100000 nM
same,GI50,LOX IMVI melanoma,< 10 nM
same,TGI,LOX IMVI melanoma,> 100000 nM
same,GI50,HT29 colon,< 10 nM
same,TGI,HT29 colon,> 100000 nM
same,GI50,NCI-H226 lung,< 10 nM
same,TGI,NCI-H226 lung,> 100000 nM
same,GI50,SR leukemia,< 10 nM
same,TGI,SR leukemia,> 100000 nM
same,GI50,DU-145 prostate,< 10 nM
same,TGI,DU-145 prostate,< 10 nM
same,GI50,TK-10 renal,< 10 nM
same,TGI,TK-10 renal,> 100000 nM
same,GI50,IGROV1 ovarian,< 10 nM
same,TGI,IGROV1 ovarian,> 100000 nM
same,GI50,PC-3 prostate,< 10 nM
same,TGI,PC-3 prostate,> 100000 nM
same,GI50,A549 NSCLC,< 10 nM
same,TGI,A549 NSCLC,> 100000 nM
same,TGI,SK-MEL-28 melanoma,> 100000 nM
same,GI50,NCI-H23 lung,< 10 nM
same,TGI,NCI-H23 lung,> 77000 nM
same,GI50,NCI-H460 lung,< 10 nM
same,TGI,NCI-H460 lung,> 100000 nM
same,GI50,OVCAR-3 ovarian,< 10 nM
same,TGI,OVCAR-3 ovarian,< 10 nM
same,GI50,RPMI-8226 leukemia,< 10 nM
same,TGI,RPMI-8226 leukemia,> 100000 nM
same,GI50,NCI-H522 lung,< 10 nM
same,TGI,NCI-H522 lung,< 10 nM
same,GI50,K-562 leukemia,< 10 nM
same,TGI,K-562 leukemia,> 100000 nM
same,GI50,NCI/ADR-RES ovarian,< 10 nM
same,TGI,NCI/ADR-RES ovarian,27.7 nM
same,GI50,RXF 393 renal,< 10 nM
same,TGI,RXF 393 renal,61800 nM
same,GI50,SK-MEL-2 melanoma,< 10 nM
same,TGI,SK-MEL-2 melanoma,> 100000 nM
same,GI50,SK-MEL-5 melanoma,< 10 nM
same,TGI,SK-MEL-5 melanoma,< 11.6 nM
same,GI50,EKVX NSCLC,12000 nM
same,TGI,EKVX NSCLC,> 100000 nM
same,GI50,OVCAR-8 ovarian,< 10 nM
same,TGI,OVCAR-8 ovarian,> 100000 nM
same,TGI,UO-31 renal,> 100000 nM
same,GI50,UACC-257 melanoma,< 10 nM
same,TGI,UACC-257 melanoma,> 100000 nM
same,GI50,HCT-15 colon,< 10 nM
same,TGI,HCT-15 colon,> 100000 nM
same,GI50,T-47D breast,25600 nM
same,TGI,T-47D breast,> 100000 nM
same,GI50,HS 578T breast,< 10 nM
same,TGI,HS 578T breast,> 100000 nM
same,GI50,CAKI-1 renal,< 12.7 nM
same,TGI,CAKI-1 renal,> 100000 nM
same,GI50,KM12 colon,< 10 nM
same,TGI,KM12 colon,> 100000 nM
same,GI50,HOP-62 NSCLC,< 10 nM
same,TGI,HOP-62 NSCLC,42500 nM
same,GI50,MOLT-4 leukemia,< 10 nM
same,TGI,MOLT-4 leukemia,> 100000 nM
same,GI50,HCT-116 colon,< 10 nM
same,TGI,HCT-116 colon,> 100000 nM
same,GI50,HOP-92 NSCLC,< 11.2 nM
same,TGI,HOP-92 NSCLC,> 100000 nM
same,GI50,MCF7 breast,< 10 nM
same,TGI,MCF7 breast,> 100000 nM
same,GI50,BT-549 breast,< 10 nM
same,TGI,BT-549 breast,< 10 nM
same,GI50,HL-60(TB) leukemia,< 10 nM
same,TGI,HL-60(TB) leukemia,< 10 nM
